Source: US12692221B2 (priority 2024, dated 2026)

Columns and labels:
[1] = molecular target: T1, 5-HT2B (h) (Homo sapiens, UniProt P41595); assay: Radioligand binding 5-HT2B (h) (agonist radioligand), [^125I](±)DOI, CHO cells
T1 construct: host or cells: CHO cells

[2] = system: Balb/c mice sensitized to OVA; assay: Airway hyperresponsiveness in OVA-induced murine allergic asthma, whole-body plethysmography with methacholine challenge; format: in vivo, mouse; conditions: 0.5 mg/kg intraperitoneal + OVA, measured 48 hours after final OVA exposure
Description: Methods: Experiments were conducted in accordance with the methods of Flanagan et al., ACS Pharmacol Transl Sci. 2020 Aug. 13; 4(2):488-502 with modifications. Briefly, Balb/c mice were sensitized to OVA via IP injection. Mice were then exposed repeatedly to aerosolized OVA to induce acute allergic airway inflammation. Airway responsiveness was assessed using non-invasive whole-body plethysmography (WBP) and methacholine challenge. Lung tissue was analyzed to quantify inflammation and mucus production.
Mice were separated into three experimental groups: 1) Naive mice were not exposed to OVA sensitization and challenge, 2) OVA mice were sensitized and challenged with the allergen OVA to induce allergic airway inflammation and hyperresponsiveness, and 3) 0.5 mg/kg exemplary compound+OVA. The exemplary compound was administered to mice via intraperitoneal injection. Respiratory parameters were measured 48 hours after the final OVA exposure. Airway responsiveness to methacholine was measured using noninvasive whole-body plethysmography (WBP) in unrestrained mice.
Baseline PenH values were recorded for each experimental group, followed by exposure to aerosolized saline or increasing concentrations of methacholine, to assess the sensitivity and reactivity of airways due to its bronchoconstricting activity. PenH values were recorded, and data were analyzed using software. […]

T1 sequence (P41595 whole entry): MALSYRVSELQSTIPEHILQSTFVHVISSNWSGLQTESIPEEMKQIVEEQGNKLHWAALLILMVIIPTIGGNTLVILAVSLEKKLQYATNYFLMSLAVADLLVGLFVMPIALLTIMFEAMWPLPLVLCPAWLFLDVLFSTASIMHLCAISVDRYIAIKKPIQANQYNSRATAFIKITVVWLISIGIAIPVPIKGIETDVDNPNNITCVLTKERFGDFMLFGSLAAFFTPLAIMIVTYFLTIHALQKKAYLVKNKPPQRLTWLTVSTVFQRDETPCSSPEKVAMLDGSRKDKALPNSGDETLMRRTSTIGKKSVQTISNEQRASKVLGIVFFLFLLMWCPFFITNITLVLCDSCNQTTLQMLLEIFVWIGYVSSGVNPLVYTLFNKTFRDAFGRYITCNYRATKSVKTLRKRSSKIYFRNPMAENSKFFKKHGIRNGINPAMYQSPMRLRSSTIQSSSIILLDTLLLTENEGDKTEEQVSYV

Row | Structure (SMILES) | Mean Percent Inhibition of Control Specific Binding ([1]; 5-HT2B(h) (agonist radioligand)) | IC50 [1] | Ki [1] | nH ([1]; 5-HT2B, Hill coefficient) | PenH response to methacholine (airway hyperresponsiveness) [2]
1 | COCCc1cc(CCN)c(OC)cc1Br [Compound 2CB-5ME, reference compound] | 104.1% |  |  |  | 
2 | COCc1cc(CCN)c(OC)cc1CC(C)C [Compound 2CiBu-5MM, 2-[4-isobutyl-2-methoxy-5-(methoxymethyl)phenyl]ethanamine] |  | 270 nM | 130 nM | 0.7 | reduced PenH values to levels representative of normal airway function
